The values below come from patent US8748572B2, “RNase a peptides, fragments and uses thereof” (priority 2006, dated 2014).

The nature of one series: isoelectric point. Format: physicochemical.
The next series has as its system E. coli DH5α. Briefly: bactericidal colony-forming assay, E. coli. The format is cell-based, Escherichia coli. To be noted: free synthetic peptide; for LD99: E. coli. The method, then:
FIGS. 5 A & B are graphs showing the bactericidal activity of rRNases A-1 and A-2. In panel (A) E. coli DH5α and in panel (B) S. aureus 502A were re-suspended in 100 mM sodium phosphate buffer, pH 7.4, and incubated with the indicated concentrations of chicken leukocyte RNase A-1 (open squares) and A-2 (closed circles) for 4 h at 37° C., plated on RNase-free LB agar, and grown overnight for colony counts.
RNase A polypeptides and fragments according to the invention that have bactericidal activity are particularly preferred for use in the treatment methods of the invention. The bactericidal and bacteriostatic activity of a particular RNase A polypeptides or fragments can be assessed by known protocols, such as that described in the methods section and the following described protocol, herein referred to as “a standard bacterial colony formation assay.” Bactericidal assays are well-described in the art, and are performed as described previously, and as exemplified in Examples 3-6. Briefly, an aliquot from a single bacterial colony overnight culture grown in Luria-Beitani (LB) broth is diluted 1:100 in sodium phosphate, pH 7.4, collected by centrifugation, and resuspended in sodium phosphate, pH 7.4. An aliquot of bacteria in buffer are incubated for 4 hr at 37° C. with recombinant protein or peptide at concentrations indicated, or diluent control and were then diluted 10, 100, or 1000-fold prior to plating on LB agar for overnight growth for colony counts.
Next, the bactericidal activity of chicken leukocyte RNases were examined using a colony-forming assay as previously described for eosinophil cationic protein [28]. […] E. coli was more susceptible to the bactericidal activity of leukocyte rRNase A-2 than was S. aureus, as 5 μM rRNase A-2 reduced the colony count of E. coli 10^7-fold, while reducing the colony count of S. aureus, only 100-fold. Recombinant RNase A-1 had no effect on colony number of E. coli or S. aureus concentrations up to and including […].
Bactericidal assays were performed as described previously with modifications. Briefly, 100 microliters from a single bacterial colony overnight culture grown in Luria-Bertani (LB) broth was diluted 1:100 in 100 mM sodium phosphate, pH 7.4, collected by centrifugation, and resuspended in 1 ml sodium phosphate, pH 7.4. Ten microliters of bacteria in buffer are incubated for 4 hr at 37° C. with 10 microliters recombinant protein or peptide at concentrations indicated, or diluent control and were then diluted 10, 100, or 1000-fold prior to plating on LB agar for overnight growth for colony counts. All points were determined in triplicate.

The subject of series [1] is Salmonella enterica serovar pullorum. Nature of the series: bactericidal assay on natural pathogen. The format is cell-based. To be noted: free peptide. An excerpt: FIG. 11 is a graph showing that the domain III peptide is bactericidal for S. enterica serovar pullorum which is a natural pathogen of domestic poultry. At the highest concentration tested, 100 micromolar, RNase A-2 domain III reduces the colony count from 100-1000 fold (2-3 logs).
The bactericidal actions of the A-2 domain sequences on natural pathogens was explored. The bactericidal activity of the leukocyte RNase A-2 domain III peptide on the natural pathogen Salmonella enterica serovar pullorum was determined using the bactericidal assays as previously described. S. enterica is a gram negative pathogen isolated initially from domestic poultry and is as such a natural target pathogen for a bactericidal agent isolated from chicken granulocytes. […] At the highest concentration tested, 100 micromolar, RNase A-2 domain III reduces the colony count from 100-1000 fold (2-3 logs). Thus, the A-2 domain sequences are useful bactericidal agents against natural pathogens.
Bactericidal assays were performed as described previously with modifications. Briefly, 100 microliters from a single bacterial colony overnight culture grown in Luria-Bertani (LB) broth was diluted 1:100 in 100 mM sodium phosphate, pH 7.4, collected by centrifugation, and resuspended in 1 ml sodium phosphate, pH 7.4. […] All points were determined in triplicate.

The test system of series [2] is Gallus gallus leukocyte RNases. Briefly: RNase activity with human placental RNase inhibitor. To be noted: preincubation with 200 U hPRI, yeast tRNA substrate, pH 7.0. The format is biochemical. The procedure: FIGS. 4 A-D are graphs showing the ribonucleolytic activity of recombinant leukocyte RNases. (A) is a graph showing the optimum pH for RNase activity. Enzymatic activity was determined with 50 pmol rRNase A-1 (open squares) and rRNase A-2 (closed circles) that was incubated with 250 μg/ml yeast tRNA in 40 mM sodium phosphate buffer at the pHs indicated. Measurements of A260 per time were converted to pmol/s as described in reference 28 and Methods. (B) is a graph showing the initial rates for RNase activity. Enzymatic activity was determined as described in (A) with 40 mM sodium phosphate buffer, pH 7.0. (C) is a graph showing the substrate preference for RNase activity. […] A260 was measured after precipitation of undigested RNA at each of the time points indicated. […] RNase activity was measured with […] of bovine pancreatic RNase (left) or […] rRNase A-1 and rRNase A-2 (right) with 250 μg/ml of yeast tRNA as substrate with (+) or without (−) 200 U human placental RNase inhibitor (hPR1) in 40 mM sodium phosphate buffer, pH 7.0. […]
The ribonuclease (RNase) assay with yeast tRNA substrate has been described in detail elsewhere. […] In experiments in which the pH optimum was to be determined, 40 mM sodium phosphate buffers of pH 5.0, 5.5, 6.0, 6.5, 7.4 or 8.0 were used instead of the buffer of pH 7.0. […]

As to TTRRHFRIT [A-2 domain II peptide], the “isoelectric point (pI)” value in “isoelectric point” was 12.8. In the series with E. coli DH5α, the “bactericidal activity of free peptide against E. coli (in words)” value (shortened to “bactericidal activity of free peptide”) is “reduced colony count of E. coli in a dose-dependent manner” and the LD99 was determined as 200 µM.

Consider “RYSGNQFNRRVRVGCRG [A-2 domain III peptide]”, for which, in the series “isoelectric point”, the “isoelectric point (pI)” value is reported as 12.3. Besides, in the series with E. coli DH5α, the “bactericidal activity of free peptide” value is given as “active” and the LD99 was 10 µM. Besides, the “bactericidal activity (in words)” value in series [1] is recorded as “bactericidal”.

In the case of SYTGNQFNHRVRVGCWG [A-1 domain III], the “isoelectric point (pI)” value in the series “isoelectric point” is on record as 9.9. Besides, the “bactericidal activity of free peptide” value in the series with E. coli DH5α is given as “no significant activity”.

In the case of TRIRTRFHT [scrambled domain II peptide], the “bactericidal activity of free peptide” value in the series on E. coli DH5α is “reduced the colony count of E. coli to the same degree as the wild type A-2 domain II peptide”.

B1: hPRI: human placental RNase inhibitor (Boehringer Mannheim) (protein)
chain: SLDIQSLDIQCEELSDARWAELLPLLQQCQVVRLDDCGLTEARCKDISSALRVNPALAELNLRSNELGDVGVHCVLQGLQTPSCKIQKLSLQNCCLTGAGCGVLSSTLRTLPTLQELHLSDNLLGDAGLQLLCEGLLDPQCRLEKLQLEYCSLSAASCEPLASVLRAKPDFKELTVSNNDINEAGVRVLCQGLKDSPCQLEALKLESCGVTSDNCRDLCGIVASKASLRELALGSNKLGDVGMAELCPGLLHPSSRLRTLWIWECGITAKGCGDLCRVLRAKESLKELSLAGNELGDEGARLLCETLLEPGCQLESLWVKSCSFTAACCSHFSSVLAQNRFLLELQISNNRLEDAGVRELCQGLGQPGSVLRVLWLADCDVSDSSCSSLAATLLANHSLRELDLSNNCLGDAGILQLVESVRQPGCLLEQLVLYDIYWSEEMEDRLQALEKDKPSLRVIS
For the molecule B1, the “inhibition of RNase activity” value in series [2] is on record as “completely inhibited”.
